Entries after “also recorded” stand apart in the source; their conditions may differ.
What was measured:
[1] = tested on: vascular smooth muscle cells (VSMCs); test: Vascular smooth muscle cell proliferation; type: cell-based; settings: 2.5, 5, and 10 μM, 48 h
Method: In order to examine its effect on the proliferation of vascular smooth muscle cells (VSMCs), VSMCs were treated with increasing concentrations of compound 7a (2.5, 5, and 10 μM) for 48 h. The cellular proliferation results are illustrated in Figure 9.
VSMCs were isolated and cultured following the reported method (Supplementary data).

[2] = tested on: Bcl-2; test: Bcl-2 level in HepG-2 cells; type: cell-based, human; settings: for Bcl-2 Conc.: HepG-2 cells treated with compound; for Bcl-2 Fold: HepG-2 cells, versus control
Excerpt: (§1) (2) Effects on Bcl-2 Family Proteins. The Bcl-2 family proteins are vital regulators of apoptosis cell death. Members of this family include the proapoptotic factor Bax which promotes cell death and the prosurvival (antiapoptotic) Bcl-2 which suppresses cell death. […] Results are expressed in Table 3.
(§2) (2) Effects on Bcl-2 Family Proteins. […] (Supplementary data).

[3] = tested on: HepG-2; test: MTT antiproliferative assay, HepG-2; type: cell-based; settings: Homo sapiens, HepG2, hepatocellular carcinoma HepG-2
Method: (§3) The in vitro antiproliferative activities of the newly synthesized compounds were evaluated against a panel of three human tumor cell lines, namely, breast cancer (MCF-7), hepatocellular carcinoma (HepG-2), and colorectal carcinoma (HCT-116) using the standard MTT method. The tested cell lines were selected depending on their VEGF overexpression. Sorafenib, the lead drug, was coassayed as a positive control.
(§4) The antiproliferative activity of the synthesized compounds was evaluated using MTT protocol as described (Supplementary data (available here)).

[4] = target: VEGFR-2 (Homo sapiens, UniProt P35968); test: In vitro VEGFR-2 enzyme inhibition assay; type: biochemical; settings: read-out: IC50 against VEGFR-2
[5] = tested on: BAX; test: BAX level in HepG-2 cells; type: cell-based, human; settings: for BAX Conc.: HepG-2 cells treated with compound; for BAX Fold: HepG-2 cells, versus control
Excerpt: as §1, §2

[6] = tested on: caspase-3; test: Active caspase-3 level in HepG-2 cells; type: cell-based, human; settings: for Caspase 3 Conc.: HepG-2 cells treated with compound; for Caspase 3 Fold: HepG-2 cells, versus control
Excerpt: (1) Effects on the Levels of Active Caspase-3. A significant mechanism by which anticancer agents can affect cancer cells is apoptosis. Apoptosis is a process of automated cell death. The apoptosis mechanism is typically mediated by a group of proteases called caspases. Caspase-3 is activated in every mammalian cell type provoking the cell to die, considered one of the apoptosis marks.
(1) Effects on the Levels of Active Caspase-3. […] (Supplementary data).

[7] = tested on: HepG-2 cells; test: Annexin V-FITC/PI apoptosis assay; type: cell-based, human; settings: HepG-2, IC50 dose (2.17 μM), 24 h
Method: (5) Apoptotic Cell Subpopulation Determination. To support the fact that derivative 7a induces apoptosis in the HepG-2 cancer cell line, annexin V-FITC and PI double-staining assay protocol was used. […] This is evidence that the antiproliferative activities are associated with a proapoptotic effect of the tested compound.
(4) Apoptotic Cell Subpopulation Determination. The annexin-V-FITC assay for compound 7a on HepG-2 cells was performed according to the reported procedure (Supplementary data).

[8] = tested on: TNF-α; test: TNF-α in HepG-2 supernatant (ELISA); type: cell-based, human
Excerpt: (1) Estimation of Human Tumor Necrosis Factor Alpha (TNF-α) in HepG-2 Supernatant. […] Celecoxib, a potent inhibitor of TNF-α-induced cytokine expressions, was used as a positive control. […] Among the tested compounds, compound 7a caused a remarkably significant reduction in TNF-α levels (87%) in comparison to celecoxib (86%).
The levels of TNF-α in cell culture supernatants were estimated by the ELISA technique according to the reported procedure.

[9] = tested on: VEGFR-2 protein expression; test: Western blot of VEGFR-2 protein expression; type: cell-based, human; settings: HepG-2 cells, 10 h exposure, versus blank
Excerpt: (4) Effect of Compound 7a on VEGFR-2 Protein Expression.

[10] = tested on: WI-38 cell line (normal human lung fibroblasts); test: MTT cytotoxicity against normal cells WI-38; type: cell-based; settings: normal human lung fibroblasts WI-38
Method: The cytotoxicity values of the synthesized compounds against the WI-38 cell line (normal human lung fibroblasts) were also evaluated in vitro.
as §4

[11] = tested on: HepG-2 cells; test: Cell cycle analysis by flow cytometry; type: cell-based, human; settings: HepG-2, compound at its IC50 concentration
Method: (3) Cell Cycle Analysis. For further investigation of the apoptotic capacity of compound 7a, flow cytometric analysis was carried out on the HepG-2 cancer cell line treated with the tested compound at its IC50 concentrations using untreated HepG-2 cancer cells as a negative control. […] Accumulation of cells at the G2-M phase for 7a was estimated to be 46.74% versus 23.11% accumulation for control HepG-2 cells.
(3) Cell Cycle Analysis. According to the method described by Léonce et al., the flow cytometric analysis for compound 7a was performed (Supplementary data).

[12] = tested on: HCT-116; test: MTT antiproliferative assay, HCT-116; type: cell-based; settings: Homo sapiens, colorectal carcinoma HCT-116
Method: as §3, §4

[13] = tested on: MCF-7; test: MTT antiproliferative assay, MCF-7; type: cell-based; settings: Homo sapiens, MCF7, breast cancer MCF-7
Method: as §3, §4

[14] = tested on: MCF-7, HepG-2, and HCT-116; test: MTT antiproliferative assay, panel of three tumor cell lines (range over lines); type: cell-based; settings: Homo sapiens, range over the three cancer cell lines, read-out: cytotoxic IC50, range over MCF-7, HepG-2 and HCT-116
Method: as §3, §4

Sequence of VEGFR-2 (P35968 20-1356): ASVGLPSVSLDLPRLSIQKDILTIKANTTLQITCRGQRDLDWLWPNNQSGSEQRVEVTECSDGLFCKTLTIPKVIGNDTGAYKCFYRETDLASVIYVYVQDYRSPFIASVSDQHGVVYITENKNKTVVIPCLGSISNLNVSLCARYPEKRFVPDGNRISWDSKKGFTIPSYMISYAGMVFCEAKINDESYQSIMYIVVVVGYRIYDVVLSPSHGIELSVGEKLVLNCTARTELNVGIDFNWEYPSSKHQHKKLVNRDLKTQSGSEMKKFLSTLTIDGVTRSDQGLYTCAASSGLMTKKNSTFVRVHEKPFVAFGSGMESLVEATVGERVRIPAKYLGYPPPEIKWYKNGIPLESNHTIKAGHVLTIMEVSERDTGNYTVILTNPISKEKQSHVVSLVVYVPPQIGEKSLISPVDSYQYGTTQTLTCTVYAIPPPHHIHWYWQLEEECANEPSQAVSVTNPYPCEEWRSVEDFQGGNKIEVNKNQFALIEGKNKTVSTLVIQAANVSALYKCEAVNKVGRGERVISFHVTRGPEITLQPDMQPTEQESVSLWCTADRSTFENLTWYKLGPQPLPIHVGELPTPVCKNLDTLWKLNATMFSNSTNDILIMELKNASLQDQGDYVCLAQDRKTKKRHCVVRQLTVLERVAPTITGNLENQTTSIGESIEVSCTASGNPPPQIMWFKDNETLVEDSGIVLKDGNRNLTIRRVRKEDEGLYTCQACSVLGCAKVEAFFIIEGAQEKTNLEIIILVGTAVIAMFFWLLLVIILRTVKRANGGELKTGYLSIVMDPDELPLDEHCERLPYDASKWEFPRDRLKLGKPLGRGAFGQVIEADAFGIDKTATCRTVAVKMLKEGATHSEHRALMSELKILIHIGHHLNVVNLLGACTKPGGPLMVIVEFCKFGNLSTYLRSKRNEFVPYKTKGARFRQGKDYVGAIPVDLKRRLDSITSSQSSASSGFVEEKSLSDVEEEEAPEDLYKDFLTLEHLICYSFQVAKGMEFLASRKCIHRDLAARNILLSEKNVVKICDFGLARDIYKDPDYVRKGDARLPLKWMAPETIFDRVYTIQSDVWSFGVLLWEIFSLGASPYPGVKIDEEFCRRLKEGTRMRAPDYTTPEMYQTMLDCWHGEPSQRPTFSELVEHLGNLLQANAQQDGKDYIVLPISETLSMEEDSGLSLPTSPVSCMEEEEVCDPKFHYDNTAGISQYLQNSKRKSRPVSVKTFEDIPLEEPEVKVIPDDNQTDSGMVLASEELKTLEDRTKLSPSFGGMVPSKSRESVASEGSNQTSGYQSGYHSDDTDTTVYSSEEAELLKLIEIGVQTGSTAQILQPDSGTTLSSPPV

SMILES | IC50 [4] [µM] | IC50 [12] [µM] | IC50 [13] [µM] | melting point [°C] | Bcl-2 Conc. [2] [pg/mL] | Bcl-2 Fold [2] [fold] | IC50 [3] [µM] | BAX Conc. [5] [pg/mL] | BAX Fold [5] [fold] | Caspase 3 Conc. [6] [pg/mL] | TNF-α % inhibition [8] [%] | IC50 [10] [µM] | IC50 [14] [µM] | Caspase 3 Fold [6] [fold] | other results
COc1cccc(NC(=O)c2ccc(NC(=O)c3cccnc3)cc2)c1 [Compound 7a, N-(4-((3-Methoxyphenyl)carbamoyl)phenyl)nicotinamide] | 2.17 | 1.46 | 1.37 | – | 1.25 | 0.23 | 1.05 | 261.4 | 12.11 | 401.15 | 87 | 60.8 | – | – | effect on VSMC proliferation [1]: potent inhibitory effect; also recorded: significant antiproliferative effect at all concentrations tested; early apoptotic population [7]: 7.41%; late apoptotic population [7]: 6.80%; effect on VEGFR-2 protein expression [9]: downregulated the expression of VEGFR-2 protein; accumulation of cells at the G2-M phase [11]: 46.74%; apoptotic cells at the pre-G1 phase [11]: 10.5%; percentage of cells at G1 [11]: 30.15%; percentage of cells at the S phase [11]: 22.11%
Cc1ccc(NC(=O)c2ccc(NC(=O)c3cccnc3)cc2)cc1 [Compound 7j, N-(4-(p-Tolylcarbamoyl)phenyl)nicotinamide] | – | 15.1 | 16.8 | 219 to 222 | – | – | 14.1 | – | – | – | – | 84.9 | 14.1 to 31.4 | – | –
Cc1ccc(NC(=O)c2ccc(NC(=O)c3cccnc3)cc2)c(C)c1 [Compound 7k, N-(4-((2,4-Dimethylphenyl)carbamoyl)phenyl)nicotinamide] | – | 18.7 | 17.1 | 254 to 256 | – | – | 20.1 | – | – | – | – | 75.3 | 14.1 to 31.4 | – | –

Continued, in another order:

IC50 [4] [µM] | IC50 [12] [µM] | IC50 [13] [µM] | melting point [°C] | SMILES | Bcl-2 Conc. [2] [pg/mL] | Bcl-2 Fold [2] [fold] | IC50 [3] [µM] | BAX Conc. [5] [pg/mL] | BAX Fold [5] [fold] | Caspase 3 Conc. [6] [pg/mL] | TNF-α % inhibition [8] [%] | IC50 [10] [µM] | IC50 [14] [µM] | Caspase 3 Fold [6] [fold] | other results
8.09 | 5.72 | 6.29 | – | O=C(N/N=C/c1ccc([N+](=O)[O-])cc1)c1ccc(NC(=O)c2cccnc2)cc1 [Compound 11c, (E)-N-(4-(2-(4-Nitrobenzylidene)hydrazine-1-carbonyl)phenyl)-nicotinamide] | 2.81 | 0.52 | 7.31 | 133.2 | 6.17 | 271.41 | 31 | 52.3 | 3.47 to 7.31 | 5.28 | –
4.17 | 3.47 | 6.15 | – | O=C(N/N=C/c1ccccc1Cl)c1ccc(NC(=O)c2cccnc2)cc1 [Compound 11f, (E)-N-(4-(2-(2-Chlorobenzylidene)hydrazine-1-carbonyl)phenyl)-nicotinamide] | 2.25 | 0.42 | 7.05 | 142.5 | 6.60 | 292.11 | 60 | 62.4 | 3.47 to 7.31 | 5.68 | –
6.12 | 4.8 | 5.73 | – | CN(C)c1ccc(/C=N/NC(=O)c2ccc(NC(=O)c3cccnc3)cc2)cc1 [Compound 11g, (E)-N-(4-(2-(4-(Dimethylamino)benzylidene)hydrazine-1-carbonyl)phenyl)-nicotinamide] | 2.55 | 0.48 | 6.42 | 160.2 | 7.42 | 324.36 | 47 | 70.1 | 3.47 to 7.31 | 6.31 | –

From paper PMC8568530, “Inhibition of Vascular Smooth Muscle and Cancer Cell Proliferation by New VEGFR Inhibitors and Their Immunomodulator Effect: Design, Synthesis, and Biological Evaluation” (Oxidative Medicine and Cellular Longevity, 2021)
